Test system: Mycobacterium tuberculosis
Assay: Antimycobacterial activity against wild type Mycobacterium bovis BCG after 21 days
Format: functional, organism-based
Conditions: variant bovis BCG

In the case of CC(=O)O[C@@H]1C=C2C(=O)O[C@@H](O)[C@]2(O)[C@@]2(C)CCCC(C)(C)[C@H]12, the Activity is reported as “Dose-dependent effect”.

From ChEMBL document CHEMBL1139202, “Inhibition of mycobacterial arylamine N-acetyltransferase contributes to anti-mycobacterial activity of Warburgia salutaris” (Bioorg Med Chem, 2007)
